# Source: patent US20150168386A1, “METHOD AND SYSTEM FOR IDENTIFYING LEAKY LUNG EPITHELIAL BARRIER” (priority 2013, published 2015)
# Key:
# [1] = urinary mannitol clearance after inhaled mannitol in human subjects; format: in vivo; conditions: 635 mg inhaled mannitol; urine over 24 hours, mass spectrometry; 6 subjects with asthma symptoms vs 2 healthy controls
# Text: Results are expressed as urinary mannitol clearance, or the concentration in the urine samples collected multiplied by the amount of urine produced. […] The horizontal bar indicates mean values.
# [2] = parameters: species or system C57BL/6 mice; conditions: mouse, in vivo
# Text: In this experiment, 6-8 week old C57BL/6 mice were infected with a clinical isolate of RSV 9 (strain A2) intranasally (i.n.) on day 0 (d0), and then challenged with orally inhaled mannitol on days 2 and 4 as indicated by the arrows in the schematic (top of figure). Two hours after each mannitol inhalation, urine was collected from mice by scruffing, and analyzed for mannitol using a colorimetric assay. They are expressed as fold change in urine mannitol relative to uninfected control mice on d0, which was set at 1. Data are mean±standard error of the mean, of n=5-6 mice per group. * indicated p<0.05.
# [3] = system: 16HBE cells; experiment: flux of mannitol across human bronchial epithelial monolayers; format: in vitro ADME; conditions: 16HBE cells confluent on semipermeable membrane; lower chamber after 1 hour, colorimetric assay; unstimulated or PolyI:C pretreated 18 hours
# Experimental: The x-axis indicates the concentration of mannitol applied to the upper chamber of 16HBE cells grown to confluence on a semipermeable membrane. The y-axis indicates the concentration of mannitol detected in the lower chamber after 1 hour, determined using a colorimetric assay (where OD refers to optical density). 16HBE cells were either unstimulated (open bars) or pretreated with the viral mimetic PolyI:C (closed bars) for 18 hours prior to analysis of mannitol permeability. Note that in both unstimulated and PolyI:C-stimulated cells, the mannitol concentration detected in the lower chamber increased steadily with the concentration of mannitol applied to the top chamber (i.e. there was no plateau). This is indicative of movement across the monolayer via paracellular routes (as opposed to receptor mediated transport, for example).
structure (smiles),measurement,setting,value
OC[C@@H](O)[C@@H](O)[C@H](O)[C@H](O)CO [mannitol],urinary mannitol clearance,[1],Subjects with asthma symptoms had higher mannitol clearance on average
same,excretion of orally inhaled mannitol (fold change in urine mannitol relative to uninfected control mice on d0),[2],higher in mice infected with respiratory syncytial virus (RSV) infection
same,flux of mannitol across the monolayer,[3],non-saturable
